{"source": "patent US20260183402A1", "about": "“NUTRITIONAL COMPOSITION” (priority 2010, published 2026)", "settings": "normal human subjects, measured over 24 hours", "note": "Where two headings read alike, the source gives them in different places."}
{"smiles": "C[C@@H](O)CCOC(=O)C[C@@H](C)O", "note": "[D-β-hydroxybutyrate-R 1,3-butanediol monoester]", "values": [{"measurement": "maximum plasma ketone concentration", "setting": "single dose 140 mg/kg ketone ester in milk-based drink", "value": 0.23, "unit": "mM"}, {"measurement": "maximum plasma ketone concentration", "setting": "single dose 357 mg/kg ketone ester in milk-based drink", "value": 0.76, "unit": "mM"}, {"measurement": "maximum plasma ketone concentration", "setting": "single dose 714 mg/kg ketone ester in milk-based drink", "value": 3.42, "unit": "mM"}]}
